Starred links: 1 amine or outer side, 2 acyl side, 3 side chain; linkers in the order of their positions; H or OH if unused. Positions of bridges follow the written chain, without caps; N, C: chain ends. Non-standard residues stand in square brackets, D forms with d. Residues, ends and D or L forms follow the SMILES beside them. *: point of attachment. hPhe(3,5-F2-4-CF3) = N[C@@H](CCc1cc(F)c(C(F)(F)F)c(F)c1)C(=O)O; hPhe(3-Cl-4-CF3) = N[C@@H](CCc1ccc(C(F)(F)F)c(Cl)c1)C(=O)O; hPhe(3-F,4-CF3) = N[C@@H](CCc1ccc(C(F)(F)F)c(F)c1)C(=O)O; NMePhe(4-CF3) = CN[C@@H](Cc1ccc(C(F)(F)F)cc1)C(=O)O; X63 = O=C(C(CCc1ccc(C(F)(F)F)c(Cl)c1)N[*:1])[*:2]; hPhe(4-CF3) = N[C@@H](CCc1ccc(C(F)(F)F)cc1)C(=O)O; NMeAbu(4,4,4-F3) = CN[C@@H](CC(F)(F)F)C(=O)O; NMePhe(4-Cl) = CN[C@@H](Cc1ccc(Cl)cc1)C(=O)O; NMePhe(4-Me) = CN[C@@H](Cc1ccc(C)cc1)C(=O)O; NMeNle(6-CHF2) = CN[C@@H](CCCCC(F)F)C(=O)O; NMePhe(2-Cl) = CN[C@@H](Cc1ccccc1Cl)C(=O)O; NMedβ3hAla = C[C@H](CC(=O)[*:2])N(C)[*:1]; NMeGly(cPent) = CN[C@H](C(=O)O)C1CCCC1; Phe(3-I) = N[C@@H](Cc1cccc(I)c1)C(=O)O; Pro(4,4-F2) = O=C(O)[C@@H]1CC(F)(F)CN1; X26 = O=C([C@@H]1CCC[C@H]1N[*:1])[*:2]; X64 = CN(C)CCOCCN(CC(=O)[*:2])[*:1]; NMeCha = CN[C@@H](CC1CCCCC1)C(=O)O; NMeCba = CN[C@@H](CC1CCC1)C(=O)O; NMeChg = CN[C@H](C(=O)O)C1CCCCC1; NMeF = CN[C@@H](Cc1ccccc1)C(=O)O; NMeI = CC[C@H](C)[C@H](NC)C(=O)O; NMeD = CN[C@@H](CC(=O)O)C(=O)O; NMeL = CN[C@@H](CC(C)C)C(=O)O; NMeNva = CCC[C@H](NC)C(=O)O; NMeV = CN[C@H](C(=O)O)C(C)C; d(β3hA) = C[C@@H](N)CC(=O)O; Pip = O=C(O)[C@@H]1CCCCN1; NMeA = CN[C@@H](C)C(=O)O; NMeAib = CNC(C)(C)C(=O)O; Nle = CCCC[C@H](N)C(=O)O; Piperidide = C1CCN(*)CC1; Pra = C#CC[C@H](N)C(=O)O; Pyrrolidide = C1CCN(*)C1; dNMeA = CN[C@H](C)C(=O)O; Ac5c = NC1(C(=O)O)CCCC1; Aze = O=C(O)[C@@H]1CCN1; Aib = CC(C)(N)C(=O)O; Isopentyl = CC(C)CC*; Sar = CNCC(=O)O
target: T1, Kras and SOS1 (biotin-tagged human Kras loaded with GDP, His-tagged human SOS1) (Homo sapiens, UniProt P01116, G12D); test: Protein-protein interaction inhibition between Kras and SOS1 (KrasGl2D-SOS PPI) using AlphaScreen; type: binding; conditions: AlphaScreen; biotin-tagged human Kras loaded with GDP, His-tagged human SOS1; read-out: KRAS G12D-SOS PPI IC50
T1 construct: made in house; host or cells: E. coli (stated for Kras only)
T1 sequence (P01116 1-188 isoform P01116-2 G12D): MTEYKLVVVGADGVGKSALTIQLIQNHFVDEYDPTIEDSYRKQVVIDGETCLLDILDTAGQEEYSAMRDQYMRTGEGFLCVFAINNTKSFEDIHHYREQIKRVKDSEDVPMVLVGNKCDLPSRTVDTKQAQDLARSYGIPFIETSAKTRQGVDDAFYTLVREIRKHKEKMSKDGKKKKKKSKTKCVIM
In short: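 Energy transfer from nickel-chelate donor beads bound to His-SOS1 to streptavidin acceptor beads bound to biotin-Kras, expressed in E. coli and loaded with GDP after purification, was monitored. Donors were excited at 680 nm; singlet oxygen reaching acceptors gave emission read at 520-620 nm.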

Compound | IC50 [nM]
CC[C@H](C)[C@@H]1NC(=O)[C@H](CC(C)C)N(C)C(=O)C[C@@H](C)NC(=O)[C@H](CC(C)C)N(C)C(=O)C(C)(C)NC(=O)[C@@H]2CCCN2C(=O)[C@H](CCc2ccc(C(F)(F)F)cc2)NC(=O)CN(C)C(=O)[C@H](Cc2ccc(Cl)cc2)N(C)C(=O)CN(C)C(=O)CN(C)C1=O [Compound 1013] (cyclo([Aib][NMeL][d(β3hA)][NMeL]I[Sar][Sar][NMePhe(4-Cl)][Sar][hPhe(4-CF3)]P)) | 31
CC[C@H](C)[C@@H]1NC(=O)[C@@H]2CCCCN2C(=O)C[C@@H](C(=O)N2CCCCC2)N(C)C(=O)[C@H](C(C)C)N(C)C(=O)C2(CCCC2)NC(=O)[C@@H]2CCCN2C(=O)[C@H](CCc2ccc(C(F)(F)F)c(F)c2)NC(=O)CN(C)C(=O)[C@H](CC2CCCCC2)N(C)C(=O)CN(C)C(=O)CN(C)C1=O [Compound 670] ([Pip]I[Sar][Sar][NMeCha][Sar][hPhe(3-F,4-CF3)]P[Ac5c][NMeV][NMeD]-Piperidide; lactam N-11) | 5.1
CCCC[C@@H]1NC(=O)[C@H](Cc2ccccc2)NC(=O)CN(C)C(=O)[C@H](Cc2ccc(Cl)cc2)N(C)C(=O)CN(C)C(=O)CN(C)C(=O)[C@H]([C@@H](C)CC)NC(=O)[C@H](CC(C)C)N(C)C(=O)C[C@@H](C(=O)N2CCCCC2)N(C)C(=O)[C@H](CC(C)C)NC(=O)C(C)(C)N(C)C1=O [Compound 1043] ([NMeL]I[Sar][Sar][NMePhe(4-Cl)][Sar]F[Nle][NMeAib]L[NMeD]-Piperidide; lactam N-11) | 60
CC[C@H](C)[C@@H]1NC(=O)[C@H](C)N(C)C(=O)C[C@@H](C)N(C)C(=O)[C@H](CC(C)C)NC(=O)C(C)(C)N(C)C(=O)[C@H](CC(C)C)NC(=O)[C@H](CCc2ccc(C(F)(F)F)c(Cl)c2)NC(=O)CN(C)C(=O)[C@H](Cc2ccc(C)cc2)N(C)C(=O)[C@@H]2CCN2C(=O)CN(C)C1=O [Compound 1377] (cyclo([Aze][NMePhe(4-Me)][Sar][hPhe(3-Cl-4-CF3)]L[NMeAib]L[NMedβ3hAla][NMeA]I[Sar])) | 5.8
CC[C@H](C)[C@@H]1NC(=O)[C@H](C)N(C)C(=O)C[C@@H](C)NC(=O)[C@H](C(C)C)N(C)C(=O)C2(CCCC2)NC(=O)[C@@H]2CCCN2C(=O)[C@H](CCc2ccc(C(F)(F)F)c(Cl)c2)NC(=O)[C@H]2CCCN2C(=O)[C@H](Cc2ccccc2)N(C)C(=O)[C@@H]2CCCN2C(=O)CN(C)C1=O [Compound 1730] (cyclo([Ac5c][NMeV][d(β3hA)][NMeA]I[Sar]P[NMeF][dP][hPhe(3-Cl-4-CF3)]P)) | 35
C#CC[C@@H]1NC(=O)[C@H](Cc2cccc(I)c2)NC(=O)CN(C)C(=O)[C@H](Cc2ccc(C(F)(F)F)cc2)N(C)C(=O)[C@@H]2CCN2C(=O)[C@H](C)N(C)C(=O)[C@H]([C@@H](C)CC)NC(=O)[C@H](CC(C)C)N(C)C(=O)C[C@@H](C(=O)N2CCCCC2)N(C)C(=O)[C@H](CC(C)C)NC(=O)C(C)(C)N(C)C1=O [Compound 1258] ([NMeL]I[NMeA][Aze][NMePhe(4-CF3)][Sar][Phe(3-I)][Pra][NMeAib]L[NMeD]-Piperidide; lactam N-11) | 26
CC[C@H](C)[C@@H]1NC(=O)[C@H](CC(C)C)N(C)C(=O)[C@@H]2CCC[C@H]2NC(=O)[C@H](C(C)C)N(C)C(=O)C2(CCCC2)NC(=O)[C@@H]2CCCN2C(=O)[C@H](CCc2ccc(C(F)(F)F)c(Cl)c2)NC(=O)CN(C)C(=O)[C@H](CC2CCCCC2)N(C)C(=O)CN(C)C(=O)CN(C)C1=O [Compound 347] (cyclo([Ac5c][NMeV][X26][NMeL]I[Sar][Sar][NMeCha][Sar][hPhe(3-Cl-4-CF3)]P)) | 27
CC[C@H](C)[C@@H]1NC(=O)[C@H](C)N(C)C(=O)C[C@@H](C)NC(=O)[C@H](C2CCCC2)N(C)C(=O)C2(CCCC2)NC(=O)[C@@H]2CCCN2C(=O)[C@H](CCc2ccc(C(F)(F)F)c(Cl)c2)NC(=O)[C@H]2CCCN2C(=O)[C@H](Cc2ccc(C)cc2)N(C)C(=O)[C@@H]2CCN2C(=O)[C@H](C)N(C)C1=O [Compound 1540] (cyclo([Ac5c][NMeGly(cPent)][d(β3hA)][NMeA]I[NMeA][Aze][NMePhe(4-Me)][dP][hPhe(3-Cl-4-CF3)]P)) | 230
CC[C@H](C)[C@@H]1NC(=O)[C@H](CC(C)C)N(C)C(=O)C[C@@H](C)N(C)C(=O)[C@H](CC2CCC2)N(C)C(=O)C2(CCCC2)NC(=O)[C@@H]2CCCN2C(=O)[C@H](CCc2ccc(C(F)(F)F)c(Cl)c2)NC(=O)CN(C)C(=O)[C@H](CC2CCCCC2)N(C)C(=O)CN(C)C(=O)CN(C)C1=O [Compound 723] (cyclo([Ac5c][NMeCba][NMedβ3hAla][NMeL]I[Sar][Sar][NMeCha][Sar][hPhe(3-Cl-4-CF3)]P)) | 17
CC[C@H](C)[C@@H]1NC(=O)[C@H](CC(F)(F)F)N(C)C(=O)C[C@@H](C(=O)N2CCCC2)N(C)C(=O)[C@H](C2CCCCC2)N(C)C(=O)C2(CCCC2)NC(=O)[C@@H]2CCCN2C(=O)[C@H](CCc2ccc(C(F)(F)F)c(Cl)c2)NC(=O)CN(C)C(=O)[C@H](Cc2ccc(C(F)(F)F)cc2)N(C)C(=O)CN(C)C(=O)CN(C)C1=O [Compound 245, (3S,9S,18S,21S,25S,28S,34S)-3-[2-[3-chloro-4-(trifluoromethyl)phenyl]ethyl]-28-cyclohexyl-7,10,13,16,22,26,29-heptamethyl-18-[(1S)-1-methylpropyl]-25-(pyrrolidine-1-carbonyl)-21-(2,2,2-trifluoroethyl)-9-[[4-(trifluoromethyl)phenyl]methyl]spiro[1,4,7,10,13,16,19,22,26,29,32-undecazabicyclo[32.3.0]heptatriacontane-31,1′-cyclopentane]-2,5,8,11,14,17,20,23,27,30,33-undecone] ([NMeAbu(4,4,4-F3)]I[Sar][Sar][NMePhe(4-CF3)][Sar][hPhe(3-Cl-4-CF3)]P[Ac5c][NMeChg][NMeD]-Pyrrolidide; lactam N-11) | 0.37
CC[C@H](C)[C@@H]1NC(=O)[C@H](C)N(C)C(=O)C[C@@H](C(=O)N2CCCC2)NC(=O)[C@H](CC(C)C)N(C)C(=O)[C@H](Cc2ccccc2)N(C)C(=O)[C@H](COCCC(C)C)NC(=O)[C@H](CCc2ccc(C(F)(F)F)cc2)NC(=O)CN(C)C(=O)[C@H](Cc2ccc(Cl)cc2)N(C)C(=O)CN(C)C(=O)CN(C)C1=O [Compound 1119] ([NMeA]I[Sar][Sar][NMePhe(4-Cl)][Sar][hPhe(4-CF3)]S(Isopentyl)[NMeF][NMeL]D-Pyrrolidide; lactam N-11) | 180
CC[C@H](C)[C@@H]1NC(=O)[C@H](CC(C)C)N(C)C(=O)C[C@@H](C(=O)N2CCCCC2)N(C)C(=O)[C@H](CC(C)C)N(C)C(=O)C(C)(C)NC(=O)[C@H](CC(C)C)N(C)C(=O)[C@H](CCc2ccc(C(F)(F)F)c(F)c2)NC(=O)CN(C)C(=O)[C@H](CCCCC(F)F)N(C)C(=O)CN(C)C(=O)CN(C)C1=O [Compound 1456] ([NMeL]I[Sar][Sar][NMeNle(6-CHF2)][Sar][hPhe(3-F,4-CF3)][NMeL][Aib][NMeL][NMeD]-Piperidide; lactam N-11) | 12
CC[C@H](C)[C@@H]1NC(=O)[C@H](C)N(C)C(=O)C[C@@H](C)NC(=O)[C@H](C2CCCC2)N(C)C(=O)C2(CCCC2)NC(=O)[C@@H]2CCCN2C(=O)[C@H](CCc2ccc(C(F)(F)F)c(Cl)c2)NC(=O)[C@@H](C)N(C)C(=O)[C@H](CC2CCCCC2)N(C)C(=O)[C@@H]2CCN2C(=O)[C@H](C)N(C)C1=O [Compound 1510] (cyclo([Ac5c][NMeGly(cPent)][d(β3hA)][NMeA]I[NMeA][Aze][NMeCha][dNMeA][hPhe(3-Cl-4-CF3)]P)) | 110
CC[C@H](C)[C@@H]1NC(=O)[C@H](CC(C)C)N(C)C(=O)C[C@@H](C(=O)N(C)C)N(C)C(=O)[C@H]([C@@H](C)CC)N(C)C(=O)C2(CCCC2)NC(=O)CN(CCOCCN(C)C)C(=O)C(CCc2ccc(C(F)(F)F)c(Cl)c2)NC(=O)CN(C)C(=O)[C@H](Cc2ccc(C)cc2)N(C)C(=O)[C@@H]2CCN2C(=O)[C@H](C)N(C)C1=O (stereo partly drawn) [Compound 2181, (3S,6S,9S,13S,16S,31S,34S)-25-[2-[3-chloro-4-(trifluoromethyl)phenyl]ethyl]-23-[2-[2-(dimethylamino)ethoxy]ethyl]-9-isobutyl-N,N,3,4,10,14,17,29,32-nonamethyl-6,16-bis[(1S)-1-methylpropyl]-2,5,8,11,15,18,21,24,27,30,33-undecaoxo-31-(p-tolylmethyl)spiro[1,4,7,10,14,17,20,23,26,29,32-undecazabicyclo[32.2.0]hexatriacontane-19,1′-cyclopentane]-13-carboxamide] ([NMeL]I[NMeA][Aze][NMePhe(4-Me)][Sar][X63][X64][Ac5c][NMeI][NMeD]-NMe2; lactam N-11) | 5.5
CC[C@H](C)[C@@H]1NC(=O)[C@H](C)N(C)C(=O)C[C@@H](C(=O)N2CCCC2)N(C)C(=O)[C@H](C(C)C)N(C)C(=O)C(C)(C)NC(=O)[C@H](Cc2ccccc2Cl)N(C)C(=O)[C@H](CCc2ccc(C(F)(F)F)c(Cl)c2)NC(=O)CN(C)C(=O)[C@H](CC2CCCCC2)N(C)C(=O)CN(C)C(=O)CN(C)C1=O [Compound 426] ([NMeA]I[Sar][Sar][NMeCha][Sar][hPhe(3-Cl-4-CF3)][NMePhe(2-Cl)][Aib][NMeV][NMeD]-Pyrrolidide; lactam N-11) | 8.7
CCC[C@H]1C(=O)N[C@@H]([C@@H](C)CC)C(=O)N(C)CC(=O)N(C)CC(=O)N(C)[C@@H](Cc2ccc(C)cc2)C(=O)N(C)CC(=O)N[C@@H](CCc2cc(F)c(C(F)(F)F)c(F)c2)C(=O)N2CC(F)(F)C[C@H]2C(=O)NC2(CCCC2)C(=O)N(C)[C@@H](C2CCCCC2)C(=O)N(C)[C@H](C(=O)N2CCCC2)CC(=O)N1C [Compound 1306] ([NMeNva]I[Sar][Sar][NMePhe(4-Me)][Sar][hPhe(3,5-F2-4-CF3)][Pro(4,4-F2)][Ac5c][NMeChg][NMeD]-Pyrrolidide; lactam N-11) | 0.5

— patent US12371454B2, “Cyclic peptide compound having Kras inhibitory action” (priority 2019, dated 2025)
